Measured values reported in US6127375A, “4,4-disubstituted-3,4-dihydro-2(1H)-quinazolinthiones useful as HIV reverse transcriptase inhibitors” (Dupont Pharmaceuticals Company, priority 1999, dated 2000).
In brackets after ≈: the same amount, converted by molar mass.

Tested on: HIV-1 (RF)
Test: HIV RNA Assay: Microplate Based Compound Evaluation in HIV-1 Infected MT-2 Cells
Type: cell-based
Details: Human immunodeficiency virus 1, MT2, 72 h; HIV-1 (RF) in MT-2 cells, 3 days at 37° C.; value to which virus inoculum was standardized (~3×10^5 PFU per assay well); read-out: IC90 value (concentration of compound required to reduce the HIV RNA level by 90%)
Protocol: Plasmid pDAB 72 containing both gag and pol sequences of BH10 (bp 113-1816) cloned into PTZ 19R was prepared according to Erickson-Viitanen et al. AIDS Research and Human Retroviruses 1989, 5, 577. The plasmid was linearized with Bam HI prior to the generation of in vitro RNA transcripts using the Riboprobe Gemini system II kit (Promega) with T7 RNA polymerase. Synthesized RNA was purified by treatment with RNase free DNAse (Promega), phenol-chloroform extraction, and ethanol precipitation. RNA transcripts were dissolved in water, and stored at -70° C. The concentration of RNA was determined from the A260.
Biotinylated capture probes were purified by HPLC after synthesis on an Applied Biosystems (Foster City, Calif.) DNA synthesizer by addition of biotin to the 5' terminal end of the oligonucleotide, using the biotin-phosphoramidite reagent of Cocuzza, Tet. Lett. 1989, 30, 6287. […]
MT-2 and MT-4 cells were maintained in RPMI 1640 supplemented with 5% fetal calf serum (FCS) for MT-2 cells or 10% FCS for MT-4 cells, 2 mM L-glutamine and 50 μg/mL gentamycin, all from Gibco. […] Infectious titers of HIV-1(RF) stocks were 1-3×10^7 PFU (plaque forming units)/mL as measured by plaque assay on MT-2 cells (see below). […]

IC90: 0.2 µg/mL (≈ 0.947 µM)
Compound: Nc1ccn([C@H]2CC[C@@H](CO)O2)c(=O)n1 [ddC, 2',3'-dideoxycytidine]
